Our source for the T/C values is PubChem BioAssay AID330 (DTP/NCI, 2004).

The experiment deals with P388 leukemia ip, CD2F1 mice, survival T/C. Nature of the experiment: NCI In Vivo Anticancer Drug Screen. Data for tumor model P388 Leukemia (intraperitoneal) in CD2F1 (CDF1) mice. The note with it: endpoint: median survival time, higher = longer survival. In a few lines:
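Mice carrying the transplanted tumor received test compound or vehicle. Survival was recorded in each group, and the value is the treated-group measurement divided by that of the vehicle-treated control group.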

The mark [1] stands for this setting: dose: 50.0 mg/kg/injection, schedule: Q01DX009 (ip), vehicle: saline.
[2] abbreviates: dose: 100.0 mg/kg/injection, schedule: Q01DX009 (ip), vehicle: saline.
The mark [3] stands for this setting: dose: 200.0 mg/kg/injection, schedule: Q01DX009 (ip), vehicle: saline.
Setting [4] is: dose: 100.0 mg/kg/injection, schedule: Q04DX003 (ip), vehicle: Klucel (hydroxypropylcellulose) (HPC).
Setting [5] is: dose: 200.0 mg/kg/injection, schedule: Q04DX003 (ip), vehicle: Klucel (hydroxypropylcellulose) (HPC).
The mark [6] stands for this setting: dose: 400.0 mg/kg/injection, schedule: Q04DX003 (ip), vehicle: Klucel (hydroxypropylcellulose) (HPC).
[7] abbreviates: dose: 25.0 mg/kg/injection, schedule: Q01DX009 (ip), vehicle: saline with Tween-80.
The mark [8] stands for this setting: dose: 50.0 mg/kg/injection, schedule: Q01DX009 (ip), vehicle: saline with Tween-80.
The mark [9] stands for this setting: dose: 100.0 mg/kg/injection, schedule: Q01DX009 (ip), vehicle: saline with Tween-80.
Setting [10] is: dose: 200.0 mg/kg/injection, schedule: Q01DX009 (ip), vehicle: saline with Tween-80.
Setting [11] is: dose: 50.0 mg/kg/injection, schedule: Q01DX005 (ip), vehicle: saline with Tween-80.
The mark [12] stands for this setting: dose: 100.0 mg/kg/injection, schedule: Q01DX005 (ip), vehicle: saline with Tween-80.
The mark [13] stands for this setting: dose: 200.0 mg/kg/injection, schedule: Q01DX005 (ip), vehicle: saline with Tween-80.

Values joined by “and” are separate entries in the source; they are usually repeats but may differ in a detail not shown here. Equal values may be shown once. Inconclusive results and toxic doses are left out.

On to `O=c1[nH]c(=O)c2nc(-c3ccc4c(c3)OCO4)cnc2[nH]1`, for which the T/C runs as follows: (dose: 100.0 mg/kg/injection, schedule: Q04DX003 (ip), vehicle: lactic acid) 93 % of control; (dose: 200.0 mg/kg/injection, schedule: Q04DX003 (ip), vehicle: lactic acid) 87 % of control.

For the compound `CC1(C)OC(=O)N(CO)C1=O`, the T/C was 109 % of control under setting [1], 119 % of control under setting [2] and 100 % of control under setting [3].

In the case of `O=C(/C=C/c1ccccc1)c1cc2c(cc1O)OCO2`, the T/C reads like this: (dose: 60.0 mg/kg/injection, schedule: Q01DX005 (ip), vehicle: saline with Tween-80) 103 % of control; (dose: 120.0 mg/kg/injection, schedule: Q01DX005 (ip), vehicle: saline with Tween-80) 107 % of control; (dose: 240.0 mg/kg/injection, schedule: Q01DX005 (ip), vehicle: saline with Tween-80) 100 % of control.

Turning to `CC1COCCOC(=O)COCC(=O)OCCOCC(C)O1` (configuration not stated), the T/C was 107 % of control under setting [4], 103 % of control under setting [5] and 93 % of control under setting [6].

As for `CC1(C)Nc2cccc3c(N=Nc4ccc(N=Nc5ccccc5)c5ccccc45)ccc(c23)N1`, the T/C reads like this: under setting [7], 120 % of control and 95 % of control and 97 % of control; under setting [8], 101 % of control and 103 % of control and 112 % of control; under setting [9], 104 % of control and 123 % of control and 91 % of control; under setting [10], 94 % of control and 95 % of control.

On to `Cc1cc(N2C(=O)CSC2=S)c([N+](=O)[O-])cc1C`, for which the T/C is 91 % of control (dose: 50.0 mg/kg/injection, schedule: Q01DX009 (ip), vehicle: suspension in saline) and 89 % of control (dose: 100.0 mg/kg/injection, schedule: Q01DX009 (ip), vehicle: suspension in saline).

`CN(C)C1C(O)C2Oc3c(cc(O)c4c3C(=O)c3cc5c(c(O)c3C4=O)C(NCCO)CC(C)(O)C5)C(C)(O2)C1O` (configuration not stated): the T/C (dose: 6.25 mg/kg/injection, schedule: Q01DX009 (ip), vehicle: other) is 104 % of control; the T/C (dose: 12.5 mg/kg/injection, schedule: Q01DX009 (ip), vehicle: other) is 108 % of control; the T/C (dose: 25.0 mg/kg/injection, schedule: Q01DX009 (ip), vehicle: other) is 123 % of control; the T/C (dose: 50.0 mg/kg/injection, schedule: Q01DX009 (ip), vehicle: other) was 157 % of control; the T/C (dose: 100.0 mg/kg/injection, schedule: Q01DX009 (ip), vehicle: other) is 157 % of control.

On to `Cc1cc(O)c(C(c2ccccc2)c2c(O)cc(C)[nH]c2=O)c(=O)[nH]1`, for which the T/C under setting [7] is 90 % of control, the T/C under setting [8] is 91 % of control and the T/C under setting [9] was 86 % of control.

On to `Cn1ccc2c1CC(=O)NC2=O`, for which the T/C is, setting by setting: (dose: 3.12 mg/kg/injection, schedule: Q04DX003 (ip), vehicle: Klucel (hydroxypropylcellulose) (HPC)) 100 % of control; (dose: 6.25 mg/kg/injection, schedule: Q04DX003 (ip), vehicle: Klucel (hydroxypropylcellulose) (HPC)) 108 % of control; (dose: 12.5 mg/kg/injection, schedule: Q04DX003 (ip), vehicle: Klucel (hydroxypropylcellulose) (HPC)) 114 % of control; under setting [4], 106 % of control.

Consider `CCOC(=O)C(=CNc1ccccc1)C(=O)OCC`, for which the T/C under setting [7] was 103 % of control, the T/C under setting [8] is 100 % of control, the T/C under setting [9] was 103 % of control and the T/C under setting [10] is 100 % of control.

As to `CN(C(=O)C1(C)OC1c1ccccc1)c1ccccc1` (configuration not stated), the T/C reads like this: under setting [4], 96 % of control; under setting [5], 100 % of control; under setting [6], 94 % of control.

For `CCOC(CCC1=NC(C)(C)CC(C)O1)OCC` (configuration not stated), the T/C by setting is: (dose: 100.0 mg/kg/injection, schedule: Q01DX001 (ip), vehicle: saline sonified) 110 % of control; (dose: 200.0 mg/kg/injection, schedule: Q01DX001 (ip), vehicle: saline sonified) 100 % of control; (dose: 400.0 mg/kg/injection, schedule: Q01DX001 (ip), vehicle: saline sonified) 90 % of control.

`BrC1(Br)C2CC3C(CC21)C3(Br)Br` (configuration not stated): the T/C is, setting by setting: (dose: 37.5 mg/kg/injection, schedule: Q01DX001 (ip), vehicle: saline with Tween-80) 100 % of control; (dose: 75.0 mg/kg/injection, schedule: Q01DX001 (ip), vehicle: saline with Tween-80) 109 % of control; (dose: 150.0 mg/kg/injection, schedule: Q01DX001 (ip), vehicle: saline with Tween-80) 100 % of control.

For `COc1cc2c(cc1C(CC(=O)O)c1ccc3c(c1)OCO3)OCO2` (configuration not stated), the T/C was 103 % of control under setting [11], 105 % of control under setting [12] and 103 % of control under setting [13].

As for `c1ccc2c(c1)Sc1cnccc1N2CC1CO1` (configuration not stated), the T/C under setting [2] was 109 % of control; the T/C under setting [3] is 100 % of control; the T/C (dose: 400.0 mg/kg/injection, schedule: Q01DX009 (ip), vehicle: saline) was 100 % of control.

As for `OCC1OC(N(O)c2ccc(Oc3c(Cl)cc(Cl)cc3Cl)cc2)C(O)C(O)C1O` (configuration not stated), the T/C reads like this: (dose: 60.0 mg/kg/injection, schedule: Q01DX005 (ip), vehicle: Klucel (hydroxypropylcellulose) (HPC)) 100 % of control; (dose: 120.0 mg/kg/injection, schedule: Q01DX005 (ip), vehicle: Klucel (hydroxypropylcellulose) (HPC)) 100 % of control.

With `CSCCC(NC=O)C(=O)NC(CC(C)C)C(=O)NC(Cc1ccccc1)C(=O)O` (configuration not stated), the T/C was 98 % of control (dose: 12.5 mg/kg/injection, schedule: Q01DX005 (ip), vehicle: distilled water + Tween-80); 98 % of control (dose: 25.0 mg/kg/injection, schedule: Q01DX005 (ip), vehicle: distilled water + Tween-80); 100 % of control (dose: 50.0 mg/kg/injection, schedule: Q01DX005 (ip), vehicle: distilled water + Tween-80); 89 % of control (dose: 100.0 mg/kg/injection, schedule: Q01DX005 (ip), vehicle: distilled water + Tween-80); 97 % of control (dose: 200.0 mg/kg/injection, schedule: Q01DX005 (ip), vehicle: distilled water + Tween-80).

On to `N#C/C(=C\c1ccc(Cl)cc1)C(=O)N/N=C/c1ccc(Cl)cc1`, for which the T/C was 97 % of control under setting [1], 97 % of control under setting [2] and 101 % of control under setting [3].

For the compound `CC1CCC(C(C)C)C(NN)C1` (configuration not stated), the T/C is 104 % of control under setting [11], 100 % of control under setting [12] and 108 % of control under setting [13].

Regarding `Nc1nnc2nc(CC(=O)/C=C/c3ccccc3)/c(=C/C(=O)/C=C/c3ccccc3)n12`, the T/C was 104 % of control (dose: 100.0 mg/kg/injection, schedule: Q04DX002 (ip), vehicle: saline with Tween-80); 107 % of control (dose: 200.0 mg/kg/injection, schedule: Q04DX002 (ip), vehicle: saline with Tween-80); 100 % of control (dose: 400.0 mg/kg/injection, schedule: Q04DX002 (ip), vehicle: saline with Tween-80).

Turning to `CCC1CN1P(=O)(Oc1ccc2ccccc2c1)N1CC1CC` (configuration not stated), the T/C (dose: 44.0 mg/kg/injection, schedule: Q04DX003 (ip), vehicle: saline with Tween-80) was 104 % of control; the T/C under setting [8] was 173 % of control; the T/C (dose: 66.0 mg/kg/injection, schedule: Q04DX003 (ip), vehicle: saline with Tween-80) is 109 % of control; the T/C under setting [9] was 155 % of control and 177 % of control; the T/C (dose: 150.0 mg/kg/injection, schedule: Q01DX009 (ip), vehicle: saline with Tween-80) was 100 % of control; the T/C (dose: 150.0 mg/kg/injection, schedule: Q04DX003 (ip), vehicle: saline with Tween-80) is 240 % of control. For the same compound, under setting [10], the T/C was 170 % of control.

Regarding `CC(C)(C)N=C(CCN1CCN(CCC(=NC(C)(C)C)Nc2ccc(Cl)cc2)CC1)Nc1ccc(Cl)cc1`, the T/C is 87 % of control (dose: 50.0 mg/kg/injection, schedule: Q01DX009 (ip), vehicle: Klucel (hydroxypropylcellulose) (HPC)); 93 % of control (dose: 100.0 mg/kg/injection, schedule: Q01DX009 (ip), vehicle: Klucel (hydroxypropylcellulose) (HPC)); 96 % of control (dose: 200.0 mg/kg/injection, schedule: Q01DX009 (ip), vehicle: Klucel (hydroxypropylcellulose) (HPC)).

In the case of `CCOC(=O)N1N=C(c2ccccc2)OC2(N3CCOCC3)CCC(C(C)(C)C)CC12` (configuration not stated), the T/C reads like this: (dose: 50.0 mg/kg/injection, schedule: Q01DX005 (ip), vehicle: Klucel (hydroxypropylcellulose) (HPC)) 100 % of control; (dose: 100.0 mg/kg/injection, schedule: Q01DX005 (ip), vehicle: Klucel (hydroxypropylcellulose) (HPC)) 101 % of control; (dose: 200.0 mg/kg/injection, schedule: Q01DX005 (ip), vehicle: Klucel (hydroxypropylcellulose) (HPC)) 97 % of control.
